Patent publication US20240075050A1, “Methods and Compositions for Treating Leucine Rich Repeat Kinase 2 (LRRK2)-Associated Disorder or Condition” (University of Connecticut, priority 2022, published 2024)

Tests used:
[1] = tested on: mouse primary cortical neurons; experiment: Primary neuronal viability assay, LRRK2-induced neuronal toxicity; type: cell-based; conditions: 1 mM AICAr
Protocol: Primary neuronal cultures and viability assay. Primary cortical neuronal cultures were prepared from embryonic day 15-16 CD1 fetal mice (Charles River)^1. Briefly, cortices were dissected and dissociated by Trypsin (Invitrogen). The cells were seeded into 24-well plates pre-coated with poly-L-ornithine (Sigma) and were maintained in Neurobasal medium (Gibco) supplemented with B27 supplement (Gibco) and L-glutamine. The glial cells were inhibited by adding 5-fluoro-20-deoxyuridine (5F2DU, 30 μM, Sigma) at days in vitro (DIV) 4. To assess ATIC in LRRK2-induced toxicity, neurons were first infected with lentiviruses of ATIC-shRNA #6 or control-shRNA at DIV 3, and MYC-LRRK2, […] were co-transfected at a plasmid ratio of 10:1 into neurons at DIV 5 using Lipofectamine 2000 reagent (Invitrogen). […] Fixed cells are washed with PBS, permeabilized and blocked for 1 hour with PBS containing 5% goat serum and 0.3% Triton X-100, then detected with rabbit anti-GFP antibody followed by AlexaFluor-488 anti-rabbit IgG antibody. […] For each independent experiment, the percent viability of GFP-positive neurons (n>100) was determined and normalized to the control neurons transfected with pEGFP-N1 plus pcDNA3.1 empty vector.

LRRK2 mRNA = LRRK2 mRNA levels by real-time PCR in SH-SY5Y cells; type: cell-based, human; conditions: 24 hours
Protocol: Real-Time PCR (qPCR). SH-SY5Y WT or AUF1-KO cells were treated with or without 2 mM AICAr for 24 hours, and total RNA was extracted from 3×10^5 cells of each treatment using TRIzol™ Reagent (Invitrogen) as per the manufacturer's introductions. Real-Time PCR (qPCR) assay was performed using GoTaq® 2-Step RT-PCR System (Promega) as per the manufacturer's introductions. Briefly, total cDNA was reversely transcribed from RNA pools (1.5 μg RNA in a 10 μl reaction mixture) using random primers. The qPCR reaction was run in CFX96 qPCR detection system (Bio-Rad) with 3 μl cDNA (1:20 dilution) in a 10 μl reaction mixture (Table 3), and set at 95° C. for 2 minutes followed by 40 amplification cycles of 95° C. for 15 seconds, 60° C. for 1 min with a melting curve, 95° C. for 15 seconds, 60° C. for 1 min, a ramp from 60° C. to 95° C. at an 1% rate, and 95° C. for 15 seconds. Melt curves were monitored to assess qPCR amplicons, and critical threshold (Ct) values were collected with an enclosed software. Relative gene expression was analyzed by normalization against Ct values of f-ACTIN (housekeeping gene) and then determined by comparison with expression levels of control sample using the relative expression index (2-ΔΔCt) method.

## NC(=O)c1ncn([C@@H]2O[C@H](CO)[C@@H](O)[C@H]2O)c1N [AICAr, 5-aminoimidazole-4-carboxamide riboside]
[1]; mouse primary neurons transfected with MYC-LRRK2 G2019S and eGFP
  LRRK2 GS mutant induced neuronal toxicity: significantly rescued
[1]; mouse primary neurons transfected with MYC-LRRK2 WT and eGFP
  overexpression of LRRK2-WT induced neuronal toxicity: significantly rescued
LRRK2 mRNA; SH-SY5Y AUF1-KO cells
  LRRK2 mRNA level in AUF1-KO cells: minimal effect
LRRK2 mRNA; SH-SY5Y WT, 2 mM, real-time PCR
  LRRK2 mRNA levels: significantly decreased
